The numbers were not newly measured in US20250073243A1, “LOW BACK PAIN TREATMENT” (Persica Pharmaceuticals Ltd., priority 2021, published 2025), which cites them from elsewhere.

≈ marks a conversion by molar mass, not a printed value.

For series [1] the following is noted: oral administration; patients with chronic LBP.

As for `CC(=O)NC[C@H]1CN(c2ccc(N3CCOCC3)c(F)c2)C(=O)O1` [linezolid, (S)—N-((3-(3-fluoro-4-morpholinophenyl)-2-oxooxazolidin-5-yl)methyl) acetamide], in the series with Gram-positive bacteria, the “minimum inhibitory concentration (MIC)” value is 1 µg/mL (≈ 2.96 µM). For the same molecule, under “standard 600 mg linezolid dose”, the “Cmax observed for a standard linezolid dose” value is recorded as “approximately 15 μg/ml”. Moreover, the “half-life of standard linezolid administration” value (standard linezolid administration) is 4 to 5 h.
With amoxicillin-clavulanate, the “improvement in outcome measures” value in series [1] was “clinically important and statistically significant (p<0.001) improvement in all outcome measures”.
